Test results published in patent US20250304596A1, “PYRAZINE DERIVATIVES AND USES THEREOF” (FOGHORN THERAPEUTICS INC., priority 2022, published 2025).

How the values were obtained:
HiBit-BRM fusion protein = target: T1, HiBit-BRM fusion protein (Homo sapiens, UniProt P51531); experiment: HiBiT-BRM cell-based degradation assay (Nano-Glo HiBiT Lytic Detection, 24 h); conditions: stable HeLa cell line expressing HiBiT-BRM; for DC50: read-out: BRM HiBit Degradation IC50
T1 construct: expressed in transfected cells
T1 sequence (P51531 whole entry, the tested form may be a part): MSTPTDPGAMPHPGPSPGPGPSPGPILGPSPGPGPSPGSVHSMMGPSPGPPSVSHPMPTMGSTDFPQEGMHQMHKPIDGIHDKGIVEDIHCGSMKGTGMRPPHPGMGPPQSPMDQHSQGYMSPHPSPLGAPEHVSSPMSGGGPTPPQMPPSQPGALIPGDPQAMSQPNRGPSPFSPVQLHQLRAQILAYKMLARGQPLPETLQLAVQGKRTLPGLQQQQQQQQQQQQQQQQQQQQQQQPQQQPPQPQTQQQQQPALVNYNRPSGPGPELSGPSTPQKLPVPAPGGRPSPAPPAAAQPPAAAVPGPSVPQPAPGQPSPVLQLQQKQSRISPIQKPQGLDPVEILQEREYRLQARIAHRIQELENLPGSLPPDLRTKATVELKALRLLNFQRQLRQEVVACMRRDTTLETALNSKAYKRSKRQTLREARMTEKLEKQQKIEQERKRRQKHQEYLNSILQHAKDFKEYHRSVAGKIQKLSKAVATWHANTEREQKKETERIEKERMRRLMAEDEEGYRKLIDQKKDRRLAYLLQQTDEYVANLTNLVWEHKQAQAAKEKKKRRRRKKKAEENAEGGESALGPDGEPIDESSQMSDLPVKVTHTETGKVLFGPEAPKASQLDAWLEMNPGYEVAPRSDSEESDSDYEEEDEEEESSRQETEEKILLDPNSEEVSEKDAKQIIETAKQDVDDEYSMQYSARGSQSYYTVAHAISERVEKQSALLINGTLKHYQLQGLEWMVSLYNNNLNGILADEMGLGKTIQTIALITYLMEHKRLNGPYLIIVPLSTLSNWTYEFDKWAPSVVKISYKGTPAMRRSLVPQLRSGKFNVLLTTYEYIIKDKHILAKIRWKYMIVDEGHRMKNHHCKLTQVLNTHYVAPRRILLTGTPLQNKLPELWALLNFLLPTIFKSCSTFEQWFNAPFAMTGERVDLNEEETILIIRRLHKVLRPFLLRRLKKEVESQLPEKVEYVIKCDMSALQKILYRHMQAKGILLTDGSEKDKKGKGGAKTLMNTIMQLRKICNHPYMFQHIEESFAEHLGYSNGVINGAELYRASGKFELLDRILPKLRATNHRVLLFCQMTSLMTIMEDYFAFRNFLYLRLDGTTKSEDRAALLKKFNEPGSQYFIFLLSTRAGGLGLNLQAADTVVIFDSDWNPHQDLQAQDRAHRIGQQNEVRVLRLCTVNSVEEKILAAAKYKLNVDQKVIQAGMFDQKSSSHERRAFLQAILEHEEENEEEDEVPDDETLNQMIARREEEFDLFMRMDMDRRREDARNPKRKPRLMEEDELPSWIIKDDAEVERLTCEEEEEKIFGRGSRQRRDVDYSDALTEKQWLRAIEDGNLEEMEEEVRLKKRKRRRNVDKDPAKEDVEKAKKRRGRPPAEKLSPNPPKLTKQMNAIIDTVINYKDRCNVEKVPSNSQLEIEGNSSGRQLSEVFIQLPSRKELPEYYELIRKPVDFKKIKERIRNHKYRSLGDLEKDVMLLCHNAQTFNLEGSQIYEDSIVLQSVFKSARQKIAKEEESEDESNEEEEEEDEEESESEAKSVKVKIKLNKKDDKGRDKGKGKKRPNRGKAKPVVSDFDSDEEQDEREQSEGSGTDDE
Summary of the method: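 A stable HeLa line expressing HiBiT-BRM was treated for 24 h with compound in a 10-point, 3-fold series (30 μM final top dose). Remaining HiBiT-BRM was read by lytic LgBiT complementation luminescence. % degradation was normalised to DMSO (high control) and 2 μM reference BRM/BRG1 degrader (low control).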

[1] = target: T2, HiBit-BRG1 fusion protein (Homo sapiens, UniProt P51532); experiment: HiBiT-BRG1 cell-based degradation assay (Nano-Glo HiBiT Lytic Detection, 24 h); conditions: stable HeLa cell line expressing HiBit-BRG1 and LgBit; for Dmax: read-out: BRG1 HiBit Degradation Maximum (%); for DC50: read-out: BRMG1 HiBit Degradation IC50
T2 construct: expressed in transfected cells
T2 sequence (P51532 whole entry, the tested form may be a part): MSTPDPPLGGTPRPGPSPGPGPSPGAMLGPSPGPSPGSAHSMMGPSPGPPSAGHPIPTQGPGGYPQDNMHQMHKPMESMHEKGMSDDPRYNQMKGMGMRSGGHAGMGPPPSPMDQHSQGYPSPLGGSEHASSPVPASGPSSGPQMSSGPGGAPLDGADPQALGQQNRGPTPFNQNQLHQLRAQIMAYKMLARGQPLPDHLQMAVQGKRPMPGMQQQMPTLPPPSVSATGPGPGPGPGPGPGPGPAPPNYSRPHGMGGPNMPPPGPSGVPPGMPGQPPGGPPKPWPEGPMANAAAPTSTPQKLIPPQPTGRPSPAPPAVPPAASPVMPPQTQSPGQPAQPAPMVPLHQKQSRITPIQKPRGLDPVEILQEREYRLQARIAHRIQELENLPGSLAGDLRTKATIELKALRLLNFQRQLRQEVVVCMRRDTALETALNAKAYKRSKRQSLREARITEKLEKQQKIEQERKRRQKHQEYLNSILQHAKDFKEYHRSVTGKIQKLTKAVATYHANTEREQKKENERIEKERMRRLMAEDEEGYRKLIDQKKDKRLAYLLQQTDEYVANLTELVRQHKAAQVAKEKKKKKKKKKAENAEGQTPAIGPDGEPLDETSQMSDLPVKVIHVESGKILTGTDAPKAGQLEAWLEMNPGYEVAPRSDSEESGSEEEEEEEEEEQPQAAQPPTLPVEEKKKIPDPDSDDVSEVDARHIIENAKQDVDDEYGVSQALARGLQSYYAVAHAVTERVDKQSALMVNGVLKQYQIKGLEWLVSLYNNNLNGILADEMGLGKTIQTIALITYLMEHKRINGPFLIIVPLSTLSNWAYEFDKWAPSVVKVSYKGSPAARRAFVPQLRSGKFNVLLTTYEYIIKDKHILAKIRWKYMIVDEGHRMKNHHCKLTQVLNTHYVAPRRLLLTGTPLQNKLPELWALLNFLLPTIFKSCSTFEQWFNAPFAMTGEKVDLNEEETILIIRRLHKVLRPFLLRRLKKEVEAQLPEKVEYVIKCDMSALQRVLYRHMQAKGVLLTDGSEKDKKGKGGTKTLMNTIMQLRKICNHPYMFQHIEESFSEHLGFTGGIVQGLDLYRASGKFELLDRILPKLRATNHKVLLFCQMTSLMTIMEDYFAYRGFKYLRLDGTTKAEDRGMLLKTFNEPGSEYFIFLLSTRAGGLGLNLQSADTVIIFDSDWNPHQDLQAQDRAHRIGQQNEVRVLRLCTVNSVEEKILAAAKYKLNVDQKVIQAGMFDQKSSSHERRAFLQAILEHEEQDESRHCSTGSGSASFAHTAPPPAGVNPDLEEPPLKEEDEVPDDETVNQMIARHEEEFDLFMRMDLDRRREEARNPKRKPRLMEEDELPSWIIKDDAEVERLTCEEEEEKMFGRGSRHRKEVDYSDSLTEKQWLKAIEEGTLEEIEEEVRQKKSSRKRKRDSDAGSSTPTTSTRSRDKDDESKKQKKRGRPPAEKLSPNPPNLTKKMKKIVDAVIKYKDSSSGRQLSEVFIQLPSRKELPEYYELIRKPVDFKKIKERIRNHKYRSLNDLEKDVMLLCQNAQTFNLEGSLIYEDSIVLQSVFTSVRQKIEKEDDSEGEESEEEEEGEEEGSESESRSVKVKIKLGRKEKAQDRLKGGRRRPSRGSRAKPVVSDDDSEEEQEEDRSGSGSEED
Summary of the method: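 HeLa cells stably expressing HiBit-BRG1 and LgBit, treated 24 h with 3-fold dilutions (10 points, duplicate, 30 μM final top dose). Luminescence read after Nano-Glo HiBiT lytic reagent; % degradation scaled between DMSO (high) and 2 μM reference BRM/BRG1 degrader (low control).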

| SMILES | DC50 (HiBit-BRM fusion protein) [µM] | Dmax [1] [%] | DC50 [1] [µM] | BRM HiBit Degradation Maximum (%) (HiBit-BRM fusion protein) |
| --- | --- | --- | --- | --- |
| Cc1ncsc1-c1ccc([C@H](C)NC(=O)[C@@H]2C[C@@H](O)CN2C(=O)[C@@H](c2cc(-c3cnc(N4CC[C@@H](c5sc6nnc(-c7ccccc7O)cc6c5C)C4)nc3)no2)C(C)C)cc1 [Compound 47, (2S,4R)-4-hydroxy-1-((R)-2-(3-(2-((R)-3-(3-(2-hydroxyphenyl)-5-methylthieno[2,3-c]pyridazin-6-yl)pyrrolidin-1-yl)pyrimidin-5-yl)isoxazol-5-yl)-3-methylbutanoyl)-N-((S)-1-(4-(4-methylthiazol-5-yl)phenyl)ethyl)pyrrolidine-2-carboxamide] | > 0.01 | > 75 | < 0.01 | A (“A” indicates maximum degradation ≥75%) |
| Cc1ncsc1-c1ccc([C@H](C)NC(=O)[C@@H]2C[C@@H](O)CN2C(=O)[C@@H](c2cc(-c3cnc(N4C[C@H]5C[C@@H]4C[C@H]5c4cc5cc(-c6ccccc6O)nnc5s4)nc3)no2)C(C)C)cc1 [Compound 13, (2S,4R)-4-hydroxy-1-((R)-2-(3-(2-((1R,4S,5R)-5-(3-(2-hydroxyphenyl)thieno[2,3-c]pyridazin-6-yl)-2-azabicyclo[2.2.1]heptan-2-yl)pyrimidin-5-yl)isoxazol-5-yl)-3-methylbutanoyl)-N-((S)-1-(4-(4-methylthiazol-5-yl)phenyl)ethyl)pyrrolidine-2-carboxamide] | > 1 | < 50 | > 1 | C (“C” indicates maximum degradation <50%) |
| Cc1ncsc1-c1ccc([C@H](C)NC(=O)[C@@H]2C[C@@H](O)CN2C(=O)[C@@H](c2cc(-c3cnc(N4CCN(c5cc6nnc(-c7ccccc7O)cc6s5)CC4)nc3)no2)C(C)C)cc1 [Compound 9, (2S,4R)-4-hydroxy-1-{2-[3-(2-{4-[3-(2-hydroxyphenyl)thieno[3,2-c]pyridazin-6-yl]piperazin-1-yl}pyrimidin-5-yl)-1,2-oxazol-5-yl]-3-methylbutanoyl}-N-[(1S)-1-[4-(4-methyl-1,3-thiazol-5-yl)phenyl]ethyl]pyrrolidine-2-carboxamide] | < 0.01 | > 75 | > 0.01 | A (“A” indicates maximum degradation ≥75%) |
| Cc1ncsc1-c1ccc([C@H](C)NC(=O)[C@@H]2C[C@@H](O)CN2C(=O)[C@@H](c2cc(-c3cnc(N4CCC(c5sc6nnc(-c7cccc(Cl)c7O)cc6c5C)CC4)nc3)no2)C(C)C)cc1 [Compound 29, (2S,4R)-1-((R)-2-(3-(2-(4-(3-(3-chloro-2-hydroxyphenyl)-5-methylthieno[2,3-c]pyridazin-6-yl)piperidin-1-yl)pyrimidin-5-yl)isoxazol-5-yl)-3-methylbutanoyl)-4-hydroxy-N-((S)-1-(4-(4-methylthiazol-5-yl)phenyl)ethyl)pyrrolidine-2-carboxamide] | > 1 | < 50 | > 1 | C (“C” indicates maximum degradation <50%) |
| Cc1ncsc1-c1ccc([C@H](C)NC(=O)[C@@H]2C[C@@H](O)CN2C(=O)[C@@H](c2cc(-c3ccc(N4CCC(c5sc6nnc(-c7ccccc7O)cc6c5C)CC4)cc3F)no2)C(C)C)cc1 [Compound 4, (2S,4R)-1-((R)-2-(3-(2-fluoro-4-(4-(3-(2-hydroxyphenyl)-5-methylthieno[2,3-c]pyridazin-6-yl)piperidin-1-yl)phenyl)isoxazol-5-yl)-3-methylbutanoyl)-4-hydroxy-N-((S)-1-(4-(4-methylthiazol-5-yl)phenyl)ethyl)pyrrolidine-2-carboxamide] | < 0.01 | < 50 | > 1 | A (“A” indicates maximum degradation ≥75%) |
| Cc1ncsc1-c1ccc([C@H](C)NC(=O)[C@@H]2C[C@@H](O)CN2C(=O)[C@@H](c2cc(-c3ccc(N4CCC(c5cc6cc(-c7ccccc7O)nnc6s5)CC4)nc3)no2)C(C)C)cc1 [Compound 39, (2S,4R)-4-hydroxy-1-((R)-2-(3-(6-(4-(3-(2-hydroxyphenyl)thieno[2,3-c]pyridazin-6-yl)piperidin-1-yl)pyridin-3-yl)isoxazol-5-yl)-3-methylbutanoyl)-N-((S)-1-(4-(4-methylthiazol-5-yl)phenyl)ethyl)pyrrolidine-2-carboxamide] | > 0.01 | < 50 | > 1 | A (“A” indicates maximum degradation ≥75%) |
| Cc1ncsc1-c1ccc([C@H](C)NC(=O)[C@@H]2C[C@@H](O)CN2C(=O)[C@@H](c2cc(-c3cnc(N4C[C@H]5C[C@@H]4C[C@@H]5c4cc5cc(-c6ccccc6O)nnc5s4)nc3)no2)C(C)C)cc1 [Compound 22, (2S,4R)-4-hydroxy-1-((R)-2-(3-(2-((1R,4S,5S)-5-(3-(2-hydroxyphenyl)thieno[2,3-c]pyridazin-6-yl)-2-azabicyclo[2.2.1]heptan-2-yl)pyrimidin-5-yl)isoxazol-5-yl)-3-methylbutanoyl)-N-((S)-1-(4-(4-methylthiazol-5-yl)phenyl)ethyl)pyrrolidine-2-carboxamide] | < 0.01 | < 50 | > 1 | A (“A” indicates maximum degradation ≥75%) |

More lines, main results first:

| DC50 (HiBit-BRM fusion protein) [µM] | Dmax [1] [%] | DC50 [1] [µM] | SMILES | BRM HiBit Degradation Maximum (%) (HiBit-BRM fusion protein) |
| --- | --- | --- | --- | --- |
| < 0.01 | < 50 | – | COc1cc(-c2cc([C@H](C(=O)N3C[C@H](O)C[C@H]3C(=O)N[C@@H](C)c3ccc(-c4scnc4C)cc3)C(C)C)on2)cnc1N1CCC(c2sc3nnc(-c4ccccc4O)cc3c2C)CC1 [Compound 90, (2S,4R)-4-hydroxy-1-((R)-2-(3-(6-(4-(3-(2-hydroxyphenyl)-5-methylthieno[2,3-c]pyridazin-6-yl)piperidin-1-yl)-5-methoxypyridin-3-yl)isoxazol-5-yl)-3-methylbutanoyl)-N-((S)-1-(4-(4-methylthiazol-5-yl)phenyl)ethyl)pyrrolidine-2-carboxamide] | A (“A” indicates maximum degradation ≥75%) |
| < 0.01 | > 50 | – | Cc1nc(N2CCC(c3sc4nnc(-c5ccccc5O)cc4c3C)CC2)ncc1-c1cc([C@H](C(=O)N2C[C@H](O)C[C@H]2C(=O)N[C@@H](C)c2ccc(-c3scnc3C)cc2)C(C)C)on1 [Compound 93, (2S,4R)-4-hydroxy-1-((R)-2-(3-(2-(4-(3-(2-hydroxyphenyl)-5-methylthieno[2,3-c]pyridazin-6-yl)piperidin-1-yl)-4-methylpyrimidin-5-yl)isoxazol-5-yl)-3-methylbutanoyl)-N-((S)-1-(4-(4-methylthiazol-5-yl)phenyl)ethyl)pyrrolidine-2-carboxamide] | A (“A” indicates maximum degradation ≥75%) |
| < 0.01 | > 50 | > 0.1 | Cc1ncsc1-c1ccc([C@H](C)NC(=O)[C@@H]2C[C@@H](O)CN2C(=O)[C@@H](c2cc(N3CCC4(CC[C@@H](c5sc6nnc(-c7ccccc7O)cc6c5C)C4)CC3)no2)C(C)C)cc1 [Compound 77, (2S,4R)-4-hydroxy-1-((R)-2-(3-((R)-2-(3-(2-hydroxyphenyl)-5-methylthieno[2,3-c]pyridazin-6-yl)-8-azaspiro[4.5]decan-8-yl)isoxazol-5-yl)-3-methylbutanoyl)-N-((S)-1-(4-(4-methylthiazol-5-yl)phenyl)ethyl)pyrrolidine-2-carboxamide] | A (“A” indicates maximum degradation ≥75%) |
| > 0.01 | < 50 | > 1 | Cc1ncsc1-c1ccc([C@H](C)NC(=O)[C@@H]2C[C@@H](O)CN2C(=O)[C@@H](c2cc([C@H]3CC[C@@H](c4cnc(N5CCC(c6sc7nnc(-c8ccccc8O)cc7c6C)CC5)nc4)CC3)no2)C(C)C)cc1 (single isomer, unassigned) [Compound 65] | A (“A” indicates maximum degradation ≥75%) |
| < 0.01 | > 50 | > 0.01 | Cc1ncsc1-c1ccc([C@H](C)NC(=O)[C@@H]2C[C@@H](O)CN2C(=O)[C@@H](c2cc(N3CC[C@H](c4sc5nnc(-c6ccccc6O)cc5c4C)C3)no2)C(C)C)cc1 [Compound 78, (2S,4R)-4-hydroxy-1-((R)-2-(3-((S)-3-(3-(2-hydroxyphenyl)-5-methylthieno[2,3-c]pyridazin-6-yl)pyrrolidin-1-yl)isoxazol-5-yl)-3-methylbutanoyl)-N-((S)-1-(4-(4-methylthiazol-5-yl)phenyl)ethyl)pyrrolidine-2-carboxamide] | A (“A” indicates maximum degradation ≥75%) |
| < 0.01 | > 50 | – | Cc1ncsc1-c1ccc([C@H](C)NC(=O)[C@@H]2C[C@@H](O)CN2C(=O)[C@@H](c2cc(-c3cnc(N4CC[C@H](c5cc6nnc(-c7ccccc7O)cc6s5)C4)nc3)no2)C(C)C)cc1 [Compound 91, (2S,4R)-4-hydroxy-1-((R)-2-(3-(2-((S)-3-(3-(2-hydroxyphenyl)thieno[3,2-c]pyridazin-6-yl)pyrrolidin-1-yl)pyrimidin-5-yl)isoxazol-5-yl)-3-methylbutanoyl)-N-((S)-1-(4-(4-methylthiazol-5-yl)phenyl)ethyl)pyrrolidine-2-carboxamide] | A (“A” indicates maximum degradation ≥75%) |
